From patent US8853359B2, “Endokinin C/D-derived peptides” (University of Miyazaki, priority 2009, dated 2014)
“Also recorded” adds a separate entry of the source. Square brackets hold non-standard residues; d marks the D form. Ends that are not written are not given here.

Tests used:
[1] = test system: substance P-induced scratching behavior; test: substance P-induced scratching behavior after intrathecal pre-administration of test peptide; assay type: in vivo, rat; settings: for number of scratching events induced by substance P, relative to control group (saline+SP = 100%): 10^-3M (10 nmol/10 μl) peptide intrathecal, 10^-3M SP 30 minutes after peptide; for number of scratching events induced by substance P, relative to control group (saline+SP = 100%) / number of scratching events induced by substance P, relative to control group: FIG. 1; for scratching behavior induced by substance P / suppressive effects: Example 3, FIG. 3, control 380 scratching; for scratching behavior induced by substance P / suppressive effects / scratching behavior induced by substance P / suppressive effects on scratching as administration interval is prolonged: 10^-3M peptide; for scratching behavior induced by substance P / suppressive effects / scratching behavior induced by substance P: SP 4 hours after peptide; for scratching behavior induced by substance P / suppressive effects on scratching as administration interval is prolonged: Example 2, FIG. 2; for scratching behavior induced by substance P: control about 380 scratching; for suppressive effects on scratching as administration interval is prolonged: interval 8 hours and then 14 hours
Description: In Example 1, 10^−3M (10 nmol/10 μl) EKC/D or D-EKC/D (1), (2) or (3) was administered to intrathecally catheterized rats via catheters. After the predetermined time periods denoted on the horizontal axis in FIG. 1, the numbers of scratching events (scratching behavior) induced by intrathecal administration of 10^−3M (10 nmol/10 μl) substance P (hereafter, referred to as “SP”) were determined. Here, the expression “10^−3M (10 nmol/10 μl) EKC/D or D-EKC/D (1), (2), or (3) was administered” refers to a situation in which 10 μl in total of a solution (that is, 10^−3M solution) containing 10 nmol of EKC/D or D-EKC/D (1), (2), or (3) was all administered. The expression, “ . . . administration of 10^−3M substance P (10 nmol/10 μl)” refers to a situation in which 10 μl in total of a solution (that is, 10^−3M solution) containing 10 nmol of the substance was all administered. The same similarly applies below.
Meanwhile, saline (10 μl) was intrathecally administered to intrathecally catheterized rats via catheters and then, after 30 minutes, 10^−3M SP (10 nmol/10 μl) was intrathecally administered to the rats. The number of the thus induced scratching events was determined to be the number of scratching events in the control group. The control group is denoted with saline-4-SP in FIG. 1.
The vertical axis of the graph in FIG. 1 indicates changes in the numbers of scratching events (represented by relative values) due to administration of 10^−3M EKC/D or D-EKC/D (1), (2), or (3) when the number of scratching events (of untreated rats in a control group) induced by intrathecal administration of 10^−3M substance P was determined to be 100%. Meanwhile, the horizontal axis indicates the intervals between the administration of EKC/D, D-EKC/D (1), (2), or (3) and 10^−3M substance P. […]
The test was conducted with procedures similar to those in Example 1, except for 4 hours of interval between the administration of each test peptide and the administration of substance P. The concentration of each test peptide and that of substance P for administration were determined to be 10^−3M (10 nmol/10 μl), similarly to Example 1. The number of scratching events in the control group was determined with procedures similar to those in Example 1, such that substance P was administered at 30 minutes after administration of saline (10 μl) and then the number was determined.

[2] = test system: SP-induced thermal hyperalgesia; test: SP-induced thermal hyperalgesia (withdrawal latency) after intrathecal pre-administration of peptide; assay type: in vivo, rat; settings: 10^-3M (10 nmol/10 μl) peptide intrathecal, FIG. 7
Text: In this test, the effects of intrathecal pre-administration with D-EKC/D (1), (2), and (3) on the induction of thermal hyperalgesia following intrathecal administration of SP were confirmed using as an index thermal hyperalgesia, which is one type of pain-related behavior. The effects can be evaluated based on withdrawal latency period, which is the time required for withdrawal response to take place after application of noxious thermal stimulation to plantar using infrared rays.
In Example 4, 10^−3M (10 nmol/10 μl) D-EKC/D (1), (2), or (3) was administered to intrathecally catheterized rats via catheters, intrathecal administration of 10^−6M (10 pmol/10 μl) SP was performed at 4 hours and at 8 hours after administration of D-EKC/D, the presence or the absence of hyperalgesia following intrathecal administration of SP was evaluated based on the time (latency period) required for withdrawal response to take place, the latency period following SP administration in rats pretreated with D-EKC/D and the latency period resulting from administration of SP alone were compared, and thus the effects of preadministration of D-EKC/D (1), (2), and (3) were evaluated.

[3] = 10^-3M (10 nmol/10 μl) Spantide I intrathecal, FIG. 6
[4] = 10^-3M peptide intrathecal, SP 1 hour after peptide
[5] = 10^-6M SP 4 hours later, saline about 20 seconds, SP about 13 seconds

For “DArg-Pro-Lys-Pro-Gln-Gln-DTrp-Phe-DTrp-Leu-Leu-NH2 ([dR]PKPQQ[dW]F[dW]LL-NH2) [Spantide I, reference compound]”, the “duration of suppressive effects on substance P-induced scratching behavior” value [1, 3] was ≤ 30 min and the “effect on substance P-induced scratching behavior” value [1, 3] was “suppressed”.
With “Ala-Tyr-Gln-Leu-Glu-His-Thr-DTrp-Gln-Gly-Leu-Leu-NH2 (AYQLEHTXQGLL; HELM PEPTIDE1{A.Y.Q.L.E.H.T.[dW].Q.G.L.L.[am]}$$$$V2.0; N-terminus assumed; SMILES CC(C)C[C@H](NC(=O)[C@H](CC(C)C)NC(=O)CNC(=O)[C@H](CCC(N)=O)NC(=O)[C@@H](Cc1c[nH]c2ccccc12)NC(=O)[C@@H](NC(=O)[C@H](Cc1c[nH]cn1)NC(=O)[C@H](CCC(=O)O)NC(=O)[C@H](CC(C)C)NC(=O)[C@H](CCC(N)=O)NC(=O)[C@H](Cc1ccc(O)cc1)NC(=O)[C@H](C)N)[C@@H](C)O)C(N)=O) [D-EKC/D (2)]” the “number of scratching events induced by substance P, relative to control group (saline+SP = 100%)” value [1] was “about 20%”, the “number of scratching events induced by substance P, relative to control group” value [1, 4] was “slight tendency of restoration” and the “number of scratching events induced by substance P, relative to control group” value ([1]; 10^-3M peptide intrathecal, administration interval of 45 minutes) was “almost the same effects were exhibited”. For the same substance, the “effect on latency period following administration of SP” value (“effect … of SP” below) [2, 5] was “significantly attenuated” and the “effect … of SP” value ([2]; 10^-6M SP 8 hours later) was “significant attenuation”.
In the case of “Thr-Phe-Gln-DTrp-Leu-Leu-NH2 (TFQXLL; HELM PEPTIDE1{T.F.Q.[dW].L.L.[am]}$$$$V2.0; N-terminus assumed; SMILES CC(C)C[C@H](NC(=O)[C@H](CC(C)C)NC(=O)[C@@H](Cc1c[nH]c2ccccc12)NC(=O)[C@H](CCC(N)=O)NC(=O)[C@H](Cc1ccccc1)NC(=O)[C@@H](N)[C@@H](C)O)C(N)=O) [D-EKC/D (7)]”, the “scratching behavior induced by substance P / suppressive effects” value [1] is reported as “attenuated; also recorded: minimum suppressive effects”.
In the case of “Leu-Glu-His-Thr-Phe-Gln-DTrp-Leu-Leu-NH2 (LEHTFQXLL; HELM PEPTIDE1{L.E.H.T.F.Q.[dW].L.L.[am]}$$$$V2.0; N-terminus assumed; SMILES CC(C)C[C@H](NC(=O)[C@H](CC(C)C)NC(=O)[C@@H](Cc1c[nH]c2ccccc12)NC(=O)[C@H](CCC(N)=O)NC(=O)[C@H](Cc1ccccc1)NC(=O)[C@@H](NC(=O)[C@H](Cc1c[nH]cn1)NC(=O)[C@H](CCC(=O)O)NC(=O)[C@@H](N)CC(C)C)[C@@H](C)O)C(N)=O) [D-EKC/D (4)]”, the “scratching behavior induced by substance P” value [1] is reported as “never induced”, the “suppressive effects on scratching as administration interval is prolonged” value [1] is reported as “gradually attenuated” and the “suppressive effects compared with [D-Trp^10]-EKC/D consisting of 12 amino acids” value ([1]; Example 2 discussion) is reported as “suppressive effects almost similar to those of [D-Trp^10]-EKC/D”. The “scratching behavior induced by substance P / suppressive effects” value [1] was “attenuated”.
In the case of “Phe-Gln-DTrp-Leu-Leu-NH2 (FQXLL; HELM PEPTIDE1{F.Q.[dW].L.L.[am]}$$$$V2.0; N-terminus assumed; SMILES CC(C)C[C@H](NC(=O)[C@H](CC(C)C)NC(=O)[C@@H](Cc1c[nH]c2ccccc12)NC(=O)[C@H](CCC(N)=O)NC(=O)[C@@H](N)Cc1ccccc1)C(N)=O) [D-EKC/D (8)]”, the “scratching behavior induced by substance P / suppressive effects” value [1] is reported as “Almost no suppressive effects; also recorded: almost the same as that of the control group”.
“His-Thr-Phe-Gln-DTrp-Leu-Leu-NH2 (HTFQXLL; HELM PEPTIDE1{H.T.F.Q.[dW].L.L.[am]}$$$$V2.0; N-terminus assumed; SMILES CC(C)C[C@H](NC(=O)[C@H](CC(C)C)NC(=O)[C@@H](Cc1c[nH]c2ccccc12)NC(=O)[C@H](CCC(N)=O)NC(=O)[C@H](Cc1ccccc1)NC(=O)[C@@H](NC(=O)[C@@H](N)Cc1c[nH]cn1)[C@@H](C)O)C(N)=O) [D-EKC/D (6)]” was tested, and the “scratching behavior induced by substance P” value [1] was “significant suppressive effects were observed”, the “suppressive effects on scratching as administration interval is prolonged” value [1] was “attenuated” and the “scratching behavior induced by substance P / suppressive effects” value [1] was “attenuated”.
“Ala-Tyr-Gln-Leu-Glu-His-Thr-DTrp-Gln-DTrp-Leu-Leu-NH2 (AYQLEHTXQXLL; HELM PEPTIDE1{A.Y.Q.L.E.H.T.[dW].Q.[dW].L.L.[am]}$$$$V2.0; N-terminus assumed; SMILES CC(C)C[C@H](NC(=O)[C@H](CC(C)C)NC(=O)[C@@H](Cc1c[nH]c2ccccc12)NC(=O)[C@H](CCC(N)=O)NC(=O)[C@@H](Cc1c[nH]c2ccccc12)NC(=O)[C@@H](NC(=O)[C@H](Cc1c[nH]cn1)NC(=O)[C@H](CCC(=O)O)NC(=O)[C@H](CC(C)C)NC(=O)[C@H](CCC(N)=O)NC(=O)[C@H](Cc1ccc(O)cc1)NC(=O)[C@H](C)N)[C@@H](C)O)C(N)=O) [D-EKC/D (1)]” was tested, and the “number of scratching events induced by substance P, relative to control group (saline+SP = 100%)” value [1] was “about 40%”, the “duration of suppressive effects on substance P-induced scratching behavior” value ([1]; 10^-3M peptide intrathecal, 10^-3M SP) was “almost the same as that of the EKC/D consisting only of L-type amino acids” and the “number of scratching events induced by substance P, relative to control group” value [1, 4] was “disappeared”. For the same substance, the “effect … of SP” value [2, 5] was “significantly attenuated” and the “effect … of SP” value ([2]; 10^-6M SP 8 hours later) was “differs from D-EKC/D (2) and (3) in duration of effectiveness”.
